Bounds are passed on as bounds.

In ChEMBL document CHEMBL1148556, “Synthesis and preliminary biological evaluation of (2S,1'R,2'S)- and (2S,1'S,2'R)-2-(2'-phosphonocyclopropyl)glycines, two novel conformationally constrained l-AP4 analogues” (Bioorg Med Chem Lett, 2006) one finds EC50 and Ki data, which are given here for four compounds.

Assay [1] has as its target T1, Metabotropic glutamate receptor 4 (Rattus norvegicus, UniProt P31423). As to the kind of experiment: Functional activity at rat mGluR4.
The target of assay [2] is T1, Metabotropic glutamate receptor 4. As to the kind of experiment: Displacement of [3H]L-AP4 from rat mGluR4 expressed in BHK cells. The class given is cell-based. (In general: Loss of bound radioactivity is the signal in a displacement assay; it reports binding, not function.)
In assay [3] the target is Metabotropic glutamate receptor 6 (Rattus norvegicus, UniProt P35349). Briefly: Activity at rat mGluR6 by measuring cAMP formation in CHO cells. The class given is functional, cell-based.
Metabotropic glutamate receptor 6, sequence (P35349 whole entry): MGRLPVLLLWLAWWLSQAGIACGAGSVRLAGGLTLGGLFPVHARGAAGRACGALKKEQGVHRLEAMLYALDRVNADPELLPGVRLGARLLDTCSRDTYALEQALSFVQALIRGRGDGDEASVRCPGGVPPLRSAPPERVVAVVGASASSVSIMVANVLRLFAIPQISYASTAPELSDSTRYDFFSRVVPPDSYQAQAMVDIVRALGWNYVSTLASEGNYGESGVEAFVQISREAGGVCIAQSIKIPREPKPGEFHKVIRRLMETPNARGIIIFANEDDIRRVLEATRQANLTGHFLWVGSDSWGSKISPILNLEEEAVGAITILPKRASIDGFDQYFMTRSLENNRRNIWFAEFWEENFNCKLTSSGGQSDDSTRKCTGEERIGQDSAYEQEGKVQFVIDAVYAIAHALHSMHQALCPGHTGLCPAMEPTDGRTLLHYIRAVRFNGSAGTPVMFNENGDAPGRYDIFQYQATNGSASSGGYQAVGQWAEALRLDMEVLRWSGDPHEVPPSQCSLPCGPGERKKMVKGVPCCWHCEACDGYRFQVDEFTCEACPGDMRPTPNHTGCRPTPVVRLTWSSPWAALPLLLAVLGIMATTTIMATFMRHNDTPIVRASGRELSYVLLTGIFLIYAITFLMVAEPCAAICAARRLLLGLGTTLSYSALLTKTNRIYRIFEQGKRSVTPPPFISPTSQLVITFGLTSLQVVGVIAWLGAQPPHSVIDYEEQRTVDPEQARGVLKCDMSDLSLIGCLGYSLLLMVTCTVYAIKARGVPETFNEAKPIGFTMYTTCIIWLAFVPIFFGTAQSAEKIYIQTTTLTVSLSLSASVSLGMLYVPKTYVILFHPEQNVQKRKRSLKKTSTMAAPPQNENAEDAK
In assay [4] the target is Metabotropic glutamate receptor 7 (Homo sapiens, UniProt Q14831). Briefly: Activity at human mGluR7 by measuring cAMP formation in BHK cells. The class given is functional, cell-based. In general terms: Cyclic AMP is a second messenger, typically raised through Gs and lowered through Gi signalling.
Assay [5] concerns the target Metabotropic glutamate receptor 8 (Rattus norvegicus, UniProt P70579). As to the kind of experiment: Displacement of [3H]LY341495 from rat mGluR8 expressed in BHK cells. The format is cell-based.
The target in assay [6] is Metabotropic glutamate receptor 5 (Rattus norvegicus, UniProt P31424). As to the kind of experiment: Activity at rat mGluR5 by measuring intracellular calcium concentration in CHO cells. The format is functional, cell-based.
Metabotropic glutamate receptor 5, sequence (P31424 whole entry): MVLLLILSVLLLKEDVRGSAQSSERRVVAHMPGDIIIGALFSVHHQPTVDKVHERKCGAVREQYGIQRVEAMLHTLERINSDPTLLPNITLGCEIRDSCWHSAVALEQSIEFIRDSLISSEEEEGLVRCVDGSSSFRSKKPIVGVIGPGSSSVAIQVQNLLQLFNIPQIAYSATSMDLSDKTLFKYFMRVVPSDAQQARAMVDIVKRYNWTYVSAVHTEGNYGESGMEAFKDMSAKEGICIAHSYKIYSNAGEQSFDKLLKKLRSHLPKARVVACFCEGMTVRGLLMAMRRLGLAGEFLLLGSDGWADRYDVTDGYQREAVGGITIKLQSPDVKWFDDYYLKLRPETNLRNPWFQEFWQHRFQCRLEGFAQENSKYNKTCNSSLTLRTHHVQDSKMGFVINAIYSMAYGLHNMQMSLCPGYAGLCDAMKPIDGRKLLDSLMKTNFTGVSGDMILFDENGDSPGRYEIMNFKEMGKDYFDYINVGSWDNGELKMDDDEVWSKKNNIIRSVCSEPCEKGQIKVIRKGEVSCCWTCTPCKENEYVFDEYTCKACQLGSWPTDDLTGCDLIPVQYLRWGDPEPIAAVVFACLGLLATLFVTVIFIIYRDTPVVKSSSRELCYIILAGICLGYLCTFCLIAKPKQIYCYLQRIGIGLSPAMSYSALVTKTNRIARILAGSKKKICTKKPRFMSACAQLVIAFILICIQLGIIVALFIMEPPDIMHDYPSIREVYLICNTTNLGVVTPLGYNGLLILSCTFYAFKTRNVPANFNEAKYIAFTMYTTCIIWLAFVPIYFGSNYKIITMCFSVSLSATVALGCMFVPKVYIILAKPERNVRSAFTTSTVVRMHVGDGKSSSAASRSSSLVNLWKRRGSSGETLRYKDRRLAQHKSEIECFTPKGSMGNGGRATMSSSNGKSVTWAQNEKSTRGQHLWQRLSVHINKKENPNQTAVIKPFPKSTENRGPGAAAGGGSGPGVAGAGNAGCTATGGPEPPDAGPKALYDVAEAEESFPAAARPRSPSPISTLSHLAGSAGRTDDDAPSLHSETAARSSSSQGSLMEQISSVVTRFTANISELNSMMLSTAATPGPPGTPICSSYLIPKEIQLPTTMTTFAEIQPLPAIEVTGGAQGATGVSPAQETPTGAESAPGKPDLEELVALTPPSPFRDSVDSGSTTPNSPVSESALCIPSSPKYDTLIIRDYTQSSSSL
The target of assay [7] is Metabotropic glutamate receptor 2 (Homo sapiens, UniProt Q14416). As to the kind of experiment: Activity at human mGluR2 from BHK cells in [35S]GTP-gamma-S stimulation assay. The format is functional, cell-based. A general note: GTPγS is a poorly hydrolysed GTP analogue; its binding reports G protein activation.
Metabotropic glutamate receptor 2, sequence (Q14416 whole entry): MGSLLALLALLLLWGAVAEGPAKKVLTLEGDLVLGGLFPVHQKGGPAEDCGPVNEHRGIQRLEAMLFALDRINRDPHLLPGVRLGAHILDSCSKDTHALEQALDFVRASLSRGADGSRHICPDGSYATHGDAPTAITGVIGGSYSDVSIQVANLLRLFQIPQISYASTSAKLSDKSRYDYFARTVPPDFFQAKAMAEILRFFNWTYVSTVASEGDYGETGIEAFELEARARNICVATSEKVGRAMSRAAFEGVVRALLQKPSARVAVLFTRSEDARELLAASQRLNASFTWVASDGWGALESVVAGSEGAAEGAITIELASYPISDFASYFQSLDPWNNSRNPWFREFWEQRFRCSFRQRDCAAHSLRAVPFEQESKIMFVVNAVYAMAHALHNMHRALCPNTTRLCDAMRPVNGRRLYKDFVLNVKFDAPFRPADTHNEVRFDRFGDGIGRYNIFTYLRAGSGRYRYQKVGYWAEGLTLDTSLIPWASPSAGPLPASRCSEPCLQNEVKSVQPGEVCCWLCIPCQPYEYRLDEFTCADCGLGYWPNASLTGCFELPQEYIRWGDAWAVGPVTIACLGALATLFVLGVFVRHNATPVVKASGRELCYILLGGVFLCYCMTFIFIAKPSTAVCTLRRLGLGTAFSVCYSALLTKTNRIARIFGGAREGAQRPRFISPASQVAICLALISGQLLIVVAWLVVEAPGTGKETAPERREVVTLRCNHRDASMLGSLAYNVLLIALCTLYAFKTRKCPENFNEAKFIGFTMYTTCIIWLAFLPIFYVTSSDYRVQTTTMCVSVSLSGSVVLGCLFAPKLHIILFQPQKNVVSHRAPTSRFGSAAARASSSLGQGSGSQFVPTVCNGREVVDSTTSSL
For assay [8], the target named is Metabotropic glutamate receptor 1 (Rattus norvegicus, UniProt P23385). As to the kind of experiment: Activity at rat mGluR1 by measuring intracellular calcium concentration in CHO cells. The class given is functional, cell-based.
Metabotropic glutamate receptor 1, sequence (P23385 whole entry): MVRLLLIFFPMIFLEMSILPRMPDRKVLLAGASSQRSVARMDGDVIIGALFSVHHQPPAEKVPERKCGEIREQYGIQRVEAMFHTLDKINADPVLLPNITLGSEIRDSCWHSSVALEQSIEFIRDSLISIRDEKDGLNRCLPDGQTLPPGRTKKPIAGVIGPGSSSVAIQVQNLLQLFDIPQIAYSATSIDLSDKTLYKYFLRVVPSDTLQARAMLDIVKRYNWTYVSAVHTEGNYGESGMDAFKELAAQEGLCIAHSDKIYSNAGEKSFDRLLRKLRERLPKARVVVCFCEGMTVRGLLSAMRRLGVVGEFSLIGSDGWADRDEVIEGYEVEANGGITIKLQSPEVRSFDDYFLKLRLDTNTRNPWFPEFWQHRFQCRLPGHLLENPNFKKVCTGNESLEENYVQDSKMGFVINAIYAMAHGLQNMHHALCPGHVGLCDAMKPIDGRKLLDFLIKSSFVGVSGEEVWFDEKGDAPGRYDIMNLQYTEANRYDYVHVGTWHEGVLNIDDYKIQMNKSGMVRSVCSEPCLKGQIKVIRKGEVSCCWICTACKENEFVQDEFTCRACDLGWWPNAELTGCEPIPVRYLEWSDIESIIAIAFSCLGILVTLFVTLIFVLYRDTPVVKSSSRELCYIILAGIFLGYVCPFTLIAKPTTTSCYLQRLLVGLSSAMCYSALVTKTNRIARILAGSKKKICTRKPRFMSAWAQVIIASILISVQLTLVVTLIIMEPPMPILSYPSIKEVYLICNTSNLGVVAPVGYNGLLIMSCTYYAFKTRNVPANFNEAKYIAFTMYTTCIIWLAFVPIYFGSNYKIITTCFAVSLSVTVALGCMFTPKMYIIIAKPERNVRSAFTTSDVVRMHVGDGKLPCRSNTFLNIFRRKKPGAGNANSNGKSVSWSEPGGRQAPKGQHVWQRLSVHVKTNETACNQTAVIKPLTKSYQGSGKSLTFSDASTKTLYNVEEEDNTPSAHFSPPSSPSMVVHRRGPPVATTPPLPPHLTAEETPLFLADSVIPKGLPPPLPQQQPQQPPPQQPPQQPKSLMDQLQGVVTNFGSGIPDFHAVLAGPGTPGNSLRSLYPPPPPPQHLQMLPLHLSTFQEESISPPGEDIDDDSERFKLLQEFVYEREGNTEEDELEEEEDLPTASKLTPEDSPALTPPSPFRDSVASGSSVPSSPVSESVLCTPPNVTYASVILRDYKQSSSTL

Metabotropic glutamate receptor 8, sequence (P70579 whole entry): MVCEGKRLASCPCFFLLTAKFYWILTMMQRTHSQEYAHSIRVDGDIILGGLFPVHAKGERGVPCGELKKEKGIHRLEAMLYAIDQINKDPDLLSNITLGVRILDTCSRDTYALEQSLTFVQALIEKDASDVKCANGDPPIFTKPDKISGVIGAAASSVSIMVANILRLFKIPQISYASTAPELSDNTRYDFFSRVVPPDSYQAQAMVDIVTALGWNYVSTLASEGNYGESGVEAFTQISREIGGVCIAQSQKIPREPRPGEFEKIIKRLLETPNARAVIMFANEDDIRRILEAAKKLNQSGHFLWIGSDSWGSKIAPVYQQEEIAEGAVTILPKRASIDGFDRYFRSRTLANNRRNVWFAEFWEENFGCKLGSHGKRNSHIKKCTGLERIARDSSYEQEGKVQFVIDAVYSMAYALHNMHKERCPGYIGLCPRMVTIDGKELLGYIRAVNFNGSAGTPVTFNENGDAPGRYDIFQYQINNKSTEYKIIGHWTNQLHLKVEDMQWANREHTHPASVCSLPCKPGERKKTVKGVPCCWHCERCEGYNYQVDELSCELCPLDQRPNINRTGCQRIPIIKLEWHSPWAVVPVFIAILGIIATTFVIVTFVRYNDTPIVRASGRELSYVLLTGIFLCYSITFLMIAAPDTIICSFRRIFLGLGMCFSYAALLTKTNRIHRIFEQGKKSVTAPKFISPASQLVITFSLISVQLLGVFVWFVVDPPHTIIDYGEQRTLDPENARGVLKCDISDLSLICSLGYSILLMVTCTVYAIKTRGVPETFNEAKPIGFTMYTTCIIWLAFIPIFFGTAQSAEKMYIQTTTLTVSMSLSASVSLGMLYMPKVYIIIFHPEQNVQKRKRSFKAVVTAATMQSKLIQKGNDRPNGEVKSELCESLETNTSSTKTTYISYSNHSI

Turning to `N[C@@H](CCC(=O)O)C(=O)O` [GLUTAMIC ACID], the EC50 in assay [1] was 6.1 µM; in assay [3] it was 7.6 µM; in assay [4] it was greater than 1000 µM. Moreover, the inhibition constant Ki in assay [2] and in assay [5] was 3.4 µM throughout.

On to `N[C@H](C(=O)O)[C@@H]1C[C@H]1P(=O)(O)O`, for which the EC50 in assay [1] is 49 µM; in assay [6], greater than 1000 µM; in assay [7], greater than 1000 µM; in assay [8] it was greater than 1000 µM; in assay [3], 46 µM; in assay [4] it was greater than 1000 µM. The inhibitory constant (Ki) in assay [2] was 53 µM; in assay [5], 54 µM.

As for `N[C@@H](CCP(=O)(O)O)C(=O)O`, the EC50 is 0.51 µM in assay [1]; greater than 1000 µM in assay [6]; greater than 1000 µM in assay [7]; greater than 1000 µM in assay [8]; 0.34 µM in assay [3]; 188 µM in assay [4]. In addition, the inhibition constant (Ki) stood at 0.16 µM in assay [2] and 1.9 µM in assay [5].

Take `N[C@H](C(=O)O)[C@H]1C[C@@H]1P(=O)(O)O`: the EC50 is 9.4 µM in assay [1]; greater than 1000 µM in assay [6]; greater than 1000 µM in assay [7]; greater than 1000 µM in assay [8]; 13 µM in assay [3]; 700 µM in assay [4]. Moreover, the inhibition constant (Ki) in assay [2] was 7.4 µM; in assay [5], 63 µM.

Usually EC50 stands for the concentration needed to bring the measured effect to its halfway point. A word on the Ki: it is a dissociation constant, usually derived from enzyme kinetics or from competition with a known ligand.
